Results reported in patent publication US5698532A, “Pyrimidine nucleosides and methods for treating viral infections with same” (priority 1995, dated 1997).
Like-named read-outs stand apart in the source and are kept apart here. One block for each molecule: values may come before it.

Key:
[1] = Oral bioavailability (rat); format: in vivo; conditions: for bioavailability: in vivo, po
[2] = molecular target: HSV-2 thymidine kinase (Human herpesvirus 2, UniProt P89446); assay: inhibition of HSV-2 thymidine kinase; format: biochemical
Sequence of HSV-2 thymidine kinase (P89446 whole entry): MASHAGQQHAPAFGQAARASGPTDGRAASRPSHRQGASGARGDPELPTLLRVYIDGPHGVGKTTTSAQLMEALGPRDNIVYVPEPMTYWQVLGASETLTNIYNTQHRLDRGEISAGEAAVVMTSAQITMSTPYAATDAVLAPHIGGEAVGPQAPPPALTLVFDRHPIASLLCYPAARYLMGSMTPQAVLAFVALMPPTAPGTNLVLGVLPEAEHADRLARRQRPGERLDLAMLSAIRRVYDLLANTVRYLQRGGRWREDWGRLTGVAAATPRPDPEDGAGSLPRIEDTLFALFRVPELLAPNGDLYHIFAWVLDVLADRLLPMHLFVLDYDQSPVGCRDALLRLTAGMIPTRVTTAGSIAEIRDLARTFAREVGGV
Experimental: In this test procedure, the assay mixture contains 50 mmol Tris HCl, pH 8, 5 mmol magnesium chloride, 5 mmol ATP, 0.3 μmol ^3 H-thymidine (50 Ci/mmol), suitably diluted enzyme preparation and various concentrations of test compounds in a total volume of 100 μl. Assays are incubated at 37° C. for 30 minutes and the reaction is terminated by immersion in a boiling water bath for 2 minutes. 85 μl aliquots from each assay are then dried on to DEAE-cellulose paper discs and the unphosphorylated ^3 H-thymidine is removed by washing in 4 mmol ammonium formate. The radioactivity remaining bound to the discs is then measured by scintillation spectrophotometry. The degree of inhibition at each concentration of test compound is expressed as a percentage of the control reaction (100%) after subtracting a measured blank value which represents the amount of radioactivity bound to the disc from a reaction containing heat-inactivated enzymes. The lC50 value, namely the concentration of test compound which inhibits enzyme activity by 50%, is then calculated.

[3] = 37° C., 30 minutes, pH 8, 3H-thymidine, read-out: Activity against HSV-2 TK, IC50

Compound: CCc1cn([C@H]2C[C@H](O)[C@@H](CNC(=O)C(C)Oc3ccc(Cl)cc3Cl)O2)c(=O)[nH]c1=O (single isomer, unassigned) [Compound A, diastereoisomer a]
- bioavailability [1]: 2.84%

Compound: CCc1cn([C@H]2C[C@H](O)[C@@H](CNC(=O)C(C)Oc3ccc(Cl)cc3Cl)O2)c(=O)[nH]c1=O (mixture of isomers) [Compound A]
- IC50 [2, 3]: 3.7 nM

Compound: CCc1cn([C@@H]2O[C@H](CNC(=O)C(C)Oc3ccc(Cl)cc3Cl)[C@@H](O)[C@@H]2F)c(=O)[nH]c1=O (single isomer, unassigned) [Compound B, diastereoisomer a]
- bioavailability [1]: 14.4%

Compound: CCc1cn([C@@H]2O[C@H](CNC(=O)[C@H](C)Oc3cc(OC)c(Cl)cc3Cl)[C@@H](O)[C@@H]2F)c(=O)[nH]c1=O [Compound (I), 1-[5-[2(S)-(2,4-dichloro-5-methoxy-phenoxy)propionamido]-2,5-dideoxy-2-fluoro-β-D-arabino-furanosyl]-5-ethyluracil]
- IC50 [2]: 0.18 nM
- bioavailability [1]: 26%

Other lines, results leading:

- IC50 [2, 3]: 4 nM
Compound: CCc1cn([C@@H]2O[C@H](CNC(=O)C(C)Oc3ccc(Cl)cc3Cl)[C@@H](O)[C@@H]2F)c(=O)[nH]c1=O (mixture of isomers) [Compound B]

- Oral bioavailability (rat) [1]: 12.9%
Compound: CCc1cn([C@@H]2O[C@H](CNC(=O)C(C)Oc3ccc(Cl)cc3Cl)[C@@H](O)[C@@H]2F)c(=O)[nH]c1=O (single isomer, unassigned) [Compound B, diastereoisomer b]

- Oral bioavailability (rat) [1]: too low to calculate
Compound: CCc1cn([C@H]2C[C@H](O)[C@@H](CNC(=O)C(C)Oc3ccc(Cl)cc3Cl)O2)c(=O)[nH]c1=O (single isomer, unassigned) [compound A, diastereoisomer b]
